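Following 48 hours of exposure in 96-well plates, responses at five concentrations were used to interpolate endpoints linearly. Definition used: TGI = concentration required for complete inhibition of growth.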
How the values were obtained:
Test in all cases: inhibition of tumour cell growth, NCI panel, 48 h
CCRF-CEM leukemia = test system: CCRF-CEM leukemia
T-47D breast = test system: T-47D breast
NCI-H226 lung = test system: NCI-H226 lung
IGROV1 ovarian = test system: IGROV1 ovarian
SK-MEL-28 melanoma = test system: SK-MEL-28 melanoma
OVCAR-4 ovarian = test system: OVCAR-4 ovarian
MOLT-4 leukemia = test system: MOLT-4 leukemia
SF-539 CNS = test system: SF-539 CNS
SR leukemia = test system: SR leukemia
HCT-15 colon = test system: HCT-15 colon
EKVX NSCLC = test system: EKVX NSCLC
SF-295 CNS = test system: SF-295 CNS
PC-3 prostate = test system: PC-3 prostate
U251 CNS = test system: U251 CNS
SN12C renal = test system: SN12C renal
NCI-H522 lung = test system: NCI-H522 lung
MDA-MB-435 = test system: MDA-MB-435
SK-OV-3 ovarian = test system: SK-OV-3 ovarian
MDA-N = test system: MDA-N
HOP-92 NSCLC = test system: HOP-92 NSCLC
A549 NSCLC = test system: A549 NSCLC
SF-268 CNS = test system: SF-268 CNS
TK-10 renal = test system: TK-10 renal
HT29 colon = test system: HT29 colon
A498 renal = test system: A498 renal
SNB-19 CNS = test system: SNB-19 CNS
K-562 leukemia = test system: K-562 leukemia
HCC-2998 colon = test system: HCC-2998 colon
UO-31 renal = test system: UO-31 renal
HCT-116 colon = test system: HCT-116 colon
MDA-MB-231 breast = test system: MDA-MB-231 breast
HL-60(TB) leukemia = test system: HL-60(TB) leukemia
OVCAR-3 ovarian = test system: OVCAR-3 ovarian
M14 melanoma = test system: M14 melanoma
LOX IMVI melanoma = test system: LOX IMVI melanoma
SK-MEL-5 melanoma = test system: SK-MEL-5 melanoma
UACC-257 melanoma = test system: UACC-257 melanoma
MALME-3M melanoma = test system: MALME-3M melanoma
DU-145 prostate = test system: DU-145 prostate
HOP-62 NSCLC = test system: HOP-62 NSCLC
CAKI-1 renal = test system: CAKI-1 renal
SK-MEL-2 melanoma = test system: SK-MEL-2 melanoma
OVCAR-8 ovarian = test system: OVCAR-8 ovarian
OVCAR-5 ovarian = test system: OVCAR-5 ovarian
SW-620 colon = test system: SW-620 colon
COLO 205 colon = test system: COLO 205 colon
NCI/ADR-RES ovarian = test system: NCI/ADR-RES ovarian
786-0 renal = test system: 786-0 renal
RXF 393 renal = test system: RXF 393 renal
ACHN renal = test system: ACHN renal
NCI-H23 lung = test system: NCI-H23 lung
NCI-H460 lung = test system: NCI-H460 lung
HS 578T breast = test system: HS 578T breast
KM12 colon = test system: KM12 colon
UACC-62 melanoma = test system: UACC-62 melanoma
RPMI-8226 leukemia = test system: RPMI-8226 leukemia
SNB-75 CNS = test system: SNB-75 CNS
MCF7 breast = test system: MCF7 breast

## O=c1ccn2n1CCCCC2
CCRF-CEM leukemia
  TGI: > 100 µM
T-47D breast
  TGI: > 100 µM
NCI-H226 lung
  TGI: > 100 µM
IGROV1 ovarian
  TGI: > 100 µM
SK-MEL-28 melanoma
  TGI: > 100 µM
OVCAR-4 ovarian
  TGI: > 100 µM
MOLT-4 leukemia
  TGI: > 100 µM
SF-539 CNS
  TGI: > 100 µM
SR leukemia
  TGI: > 100 µM
HCT-15 colon
  TGI: > 100 µM
EKVX NSCLC
  TGI: > 100 µM
SF-295 CNS
  TGI: > 100 µM
PC-3 prostate
  TGI: > 100 µM
U251 CNS
  TGI: > 100 µM
SN12C renal
  TGI: > 100 µM
NCI-H522 lung
  TGI: > 100 µM
MDA-MB-435
  TGI: > 100 µM
SK-OV-3 ovarian
  TGI: > 100 µM
MDA-N
  TGI: > 100 µM
HOP-92 NSCLC
  TGI: > 100 µM
A549 NSCLC
  TGI: > 100 µM
SF-268 CNS
  TGI: > 100 µM
TK-10 renal
  TGI: > 100 µM
HT29 colon
  TGI: > 100 µM
A498 renal
  TGI: > 100 µM
SNB-19 CNS
  TGI: > 100 µM
K-562 leukemia
  TGI: > 100 µM
HCC-2998 colon
  TGI: > 100 µM
UO-31 renal
  TGI: > 100 µM
HCT-116 colon
  TGI: > 100 µM
MDA-MB-231 breast
  TGI: > 100 µM
HL-60(TB) leukemia
  TGI: > 100 µM
OVCAR-3 ovarian
  TGI: > 100 µM
M14 melanoma
  TGI: > 100 µM
LOX IMVI melanoma
  TGI: > 100 µM
SK-MEL-5 melanoma
  TGI: > 100 µM
UACC-257 melanoma
  TGI: > 100 µM
MALME-3M melanoma
  TGI: > 100 µM
DU-145 prostate
  TGI: > 100 µM
HOP-62 NSCLC
  TGI: > 100 µM
CAKI-1 renal
  TGI: > 100 µM
SK-MEL-2 melanoma
  TGI: > 100 µM
OVCAR-8 ovarian
  TGI: > 100 µM
OVCAR-5 ovarian
  TGI: > 100 µM
SW-620 colon
  TGI: > 100 µM
COLO 205 colon
  TGI: > 100 µM
NCI/ADR-RES ovarian
  TGI: > 100 µM
786-0 renal
  TGI: > 100 µM
RXF 393 renal
  TGI: > 100 µM
ACHN renal
  TGI: > 100 µM
NCI-H23 lung
  TGI: > 100 µM
NCI-H460 lung
  TGI: > 100 µM
HS 578T breast
  TGI: > 100 µM
KM12 colon
  TGI: > 100 µM
UACC-62 melanoma
  TGI: > 100 µM
RPMI-8226 leukemia
  TGI: > 100 µM

## CC(NC(=O)OC(C)(C)C)C(=O)C(N)=O (stereo not given)
CCRF-CEM leukemia
  TGI: > 100 µM
T-47D breast
  TGI: > 100 µM
NCI-H226 lung
  TGI: > 100 µM
SK-MEL-28 melanoma
  TGI: > 100 µM
MOLT-4 leukemia
  TGI: > 100 µM
SF-539 CNS
  TGI: > 100 µM
SR leukemia
  TGI: > 100 µM
HCT-15 colon
  TGI: > 100 µM
EKVX NSCLC
  TGI: > 100 µM
PC-3 prostate
  TGI: > 100 µM
U251 CNS
  TGI: > 100 µM
SN12C renal
  TGI: > 100 µM
MDA-MB-435
  TGI: > 100 µM
SK-OV-3 ovarian
  TGI: > 100 µM
MDA-N
  TGI: > 100 µM
SNB-75 CNS
  TGI: > 100 µM
HOP-92 NSCLC
  TGI: > 100 µM
A549 NSCLC
  TGI: > 100 µM
SF-268 CNS
  TGI: > 100 µM
MCF7 breast
  TGI: > 100 µM
TK-10 renal
  TGI: > 100 µM
A498 renal
  TGI: > 100 µM
SNB-19 CNS
  TGI: > 100 µM
K-562 leukemia
  TGI: > 100 µM
HCC-2998 colon
  TGI: > 100 µM
UO-31 renal
  TGI: > 100 µM
HCT-116 colon
  TGI: > 100 µM
MDA-MB-231 breast
  TGI: > 100 µM
HL-60(TB) leukemia
  TGI: > 100 µM
M14 melanoma
  TGI: > 100 µM
LOX IMVI melanoma
  TGI: > 100 µM
SK-MEL-5 melanoma
  TGI: > 100 µM
DU-145 prostate
  TGI: > 100 µM
HOP-62 NSCLC
  TGI: > 100 µM
SK-MEL-2 melanoma
  TGI: > 100 µM
OVCAR-8 ovarian
  TGI: > 100 µM
OVCAR-5 ovarian
  TGI: > 100 µM
SW-620 colon
  TGI: > 100 µM
COLO 205 colon
  TGI: > 100 µM
NCI/ADR-RES ovarian
  TGI: > 100 µM
786-0 renal
  TGI: > 100 µM
ACHN renal
  TGI: > 100 µM
NCI-H23 lung
  TGI: > 100 µM
NCI-H460 lung
  TGI: > 100 µM
HS 578T breast
  TGI: > 100 µM
RPMI-8226 leukemia
  TGI: > 100 µM

## O=C(/C=C\c1ccc(Cl)cc1Cl)c1cccs1
CCRF-CEM leukemia
  TGI: 73.6 µM
T-47D breast
  TGI: 55.7 µM
NCI-H226 lung
  TGI: 51.3 µM
SK-MEL-28 melanoma
  TGI: 42.3 µM
MOLT-4 leukemia
  TGI: > 100 µM
SF-539 CNS
  TGI: 36.5 µM
SR leukemia
  TGI: > 100 µM
HCT-15 colon
  TGI: 34.4 µM
EKVX NSCLC
  TGI: 34.3 µM
SF-295 CNS
  TGI: 37.9 µM
PC-3 prostate
  TGI: 35.2 µM
SN12C renal
  TGI: 32.1 µM
NCI-H522 lung
  TGI: 50.3 µM
MDA-MB-435
  TGI: 36.2 µM
SK-OV-3 ovarian
  TGI: 59.3 µM
MDA-N
  TGI: 35.8 µM
SNB-75 CNS
  TGI: 42.2 µM
HOP-92 NSCLC
  TGI: 69.1 µM
A549 NSCLC
  TGI: > 100 µM
SF-268 CNS
  TGI: 53.3 µM
MCF7 breast
  TGI: 41.1 µM
TK-10 renal
  TGI: 78.9 µM
HT29 colon
  TGI: 64.5 µM
A498 renal
  TGI: 39 µM
SNB-19 CNS
  TGI: 33.7 µM
K-562 leukemia
  TGI: > 100 µM
UO-31 renal
  TGI: 25 µM
HCT-116 colon
  TGI: 23.5 µM
MDA-MB-231 breast
  TGI: 40.5 µM
HL-60(TB) leukemia
  TGI: > 100 µM
OVCAR-3 ovarian
  TGI: 89.7 µM
M14 melanoma
  TGI: 35.1 µM
SK-MEL-5 melanoma
  TGI: 29.9 µM
UACC-257 melanoma
  TGI: 36.4 µM
MALME-3M melanoma
  TGI: 42.9 µM
DU-145 prostate
  TGI: 44.9 µM
HOP-62 NSCLC
  TGI: 56.2 µM
CAKI-1 renal
  TGI: 80.4 µM
SK-MEL-2 melanoma
  TGI: 35.5 µM
OVCAR-8 ovarian
  TGI: 24.8 µM
OVCAR-5 ovarian
  TGI: 41.3 µM
SW-620 colon
  TGI: 28.8 µM
COLO 205 colon
  TGI: 30.7 µM
NCI/ADR-RES ovarian
  TGI: > 100 µM
786-0 renal
  TGI: 34.6 µM
RXF 393 renal
  TGI: 44.3 µM
ACHN renal
  TGI: 27.9 µM
NCI-H23 lung
  TGI: 44 µM
NCI-H460 lung
  TGI: 89.5 µM
HS 578T breast
  TGI: 75.3 µM
KM12 colon
  TGI: 38.8 µM
UACC-62 melanoma
  TGI: 28.3 µM
RPMI-8226 leukemia
  TGI: 12.8 µM

## O=S(CCCl)c1c2ccccc2nc2ccccc12 (stereo not given)
CCRF-CEM leukemia
  TGI: > 100 µM
T-47D breast
  TGI: > 100 µM
NCI-H226 lung
  TGI: > 100 µM
IGROV1 ovarian
  TGI: > 100 µM
SK-MEL-28 melanoma
  TGI: > 100 µM
OVCAR-4 ovarian
  TGI: > 100 µM
MOLT-4 leukemia
  TGI: > 100 µM
SF-539 CNS
  TGI: > 100 µM
SR leukemia
  TGI: > 100 µM
HCT-15 colon
  TGI: > 100 µM
EKVX NSCLC
  TGI: > 100 µM
SF-295 CNS
  TGI: > 100 µM
PC-3 prostate
  TGI: > 100 µM
U251 CNS
  TGI: > 100 µM
SN12C renal
  TGI: 88.7 µM
NCI-H522 lung
  TGI: 35.6 µM
MDA-MB-435
  TGI: > 100 µM
SK-OV-3 ovarian
  TGI: > 100 µM
MDA-N
  TGI: > 100 µM
SNB-75 CNS
  TGI: > 100 µM
HOP-92 NSCLC
  TGI: > 100 µM
A549 NSCLC
  TGI: > 100 µM
SF-268 CNS
  TGI: > 100 µM
MCF7 breast
  TGI: > 100 µM
TK-10 renal
  TGI: > 100 µM
HT29 colon
  TGI: > 100 µM
A498 renal
  TGI: > 100 µM
SNB-19 CNS
  TGI: > 100 µM
K-562 leukemia
  TGI: > 100 µM
HCC-2998 colon
  TGI: > 100 µM
UO-31 renal
  TGI: > 100 µM
HCT-116 colon
  TGI: > 100 µM
MDA-MB-231 breast
  TGI: > 100 µM
HL-60(TB) leukemia
  TGI: > 100 µM
OVCAR-3 ovarian
  TGI: > 100 µM
M14 melanoma
  TGI: > 100 µM
LOX IMVI melanoma
  TGI: > 100 µM
UACC-257 melanoma
  TGI: > 100 µM
MALME-3M melanoma
  TGI: > 100 µM
DU-145 prostate
  TGI: > 100 µM
HOP-62 NSCLC
  TGI: > 100 µM
CAKI-1 renal
  TGI: 80.5 µM
SK-MEL-2 melanoma
  TGI: > 100 µM
OVCAR-8 ovarian
  TGI: > 100 µM
OVCAR-5 ovarian
  TGI: > 100 µM
SW-620 colon
  TGI: > 100 µM
COLO 205 colon
  TGI: > 100 µM
NCI/ADR-RES ovarian
  TGI: > 100 µM
786-0 renal
  TGI: > 100 µM
RXF 393 renal
  TGI: > 100 µM
ACHN renal
  TGI: > 100 µM
NCI-H23 lung
  TGI: > 100 µM
NCI-H460 lung
  TGI: > 100 µM
KM12 colon
  TGI: > 100 µM
UACC-62 melanoma
  TGI: > 100 µM
